In paper PMC9346113, “Therapeutic impact of BET inhibitor BI 894999 treatment: backtranslation from the clinic” (British Journal of Cancer, 2022):

What was measured:
HEXIM1 and HIST2H2BF = experiment: Nanostring analysis of pathway modulation markers in patient blood; assay type: in vivo; conditions: patients
Experimental: Schedule B (NCT02516553): daily oral treatment from Day 1 to Day 14 at 2.5 mg/day followed by a week-off in 3-week cycles. Schedule C (NCT02516553): one week-on, one week-off treatment, repeated every two weeks in 4-week cycles with, at each treatment week, a loading dose (6 mg) on Day 1 followed by a maintenance dose (3 mg per day) on the following 6 days.
Total RNA was extracted from whole blood using PAXgene Blood RNA kit (Qiagen) following the manufacturers’ instructions. Total RNA was quantified by direct absorbance measurement at 260 nm using a NanoDrop Spectrophotometer. Quality check was performed by additional measurement of absorbance at 280 nm and calculation of the absorbance ratio OD260/OD280.
mRNA expression was assessed using a custom NanoString nCounter codeset generated for the genes of interest plus housekeeping genes. In brief, probes were hybridised to 150 ng of total RNA for 19 h at 65 °C and applied to the nCounter™ Preparation Station for automated removal of excess probe and immobilisation of probe‐transcript complexes on a streptavidin‐coated cartridge. Data was collected using the nCounter™ Digital Analyzer by counting the individual barcodes.
Data were analysed using an in-house analysis pipeline that follows the latest Nanostring Technologies standards for the analysis of nCounter data. The analysis pipeline includes QC of the raw data using the NACHO [26]. The housekeeping genes ACTB, GAPDH, HPRT1, MGAT1 and TMED9 were used for normalisation. After normalisation expression values were exported and used for figure generation using […] [27].

HEXIM1 [1] = experiment: HEXIM1 modulation in mouse blood; assay type: in vivo; conditions: mice; 2 mg/kg p.o.
Excerpt: Cmax and PD modulation of Ty-82 tumors treated with BI 894999.

[2] = system: 10326 xenograft (BRD3-NUT); experiment: 10326 NC xenograft model; assay type: in vivo; conditions: 2 mg/kg BI 894999
Excerpt: (§1) Mice were group-housed (8–10 mice per cage) under pathogen-free and controlled environmental conditions (21 ± 1.5 C temperature, 55 ± 10% humidity) in an AAALAC accredited facility and handled according to the institutional, governmental and European Union guidelines (Austrian Animal Protection Laws, GV-SOLAS and FELASA guidelines). Animal studies were approved by the internal ethics committee and the local government committee. Mice were 6- to 8-week-old female CIEA NOG purchased from Taconic, Denmark (NOD.Cg-Prkdc^scid Il2rg^tm1Sug/JicTac). 5 × 10^6 NC tumour cells were injected subcutaneously into the right flank of the mice (1 site per mouse). Mice were randomly distributed between the treatment and the vehicle control when tumours were well established and had reached volumes of 100–150 mm^3. Compounds were suspended in 0.5% Natrosol and administered once daily intra-gastral by gavage needle. Tumour diameters were measured three times a week with a calliper. […] Within each subtopic the p-values of the efficacy parameters were adjusted for multiple comparisons according to Bonferroni–Holm. The p-values of the tolerability parameter remained unadjusted in order not to overlook a possible adverse effect. The level of significance was fixed at α = 5%. An adjusted p-value of less than 0.05 was considered to show a statistically significant difference between the groups. The statistical evaluation was prepared using the software Graph Pad Prism.

BRD3-NUT = system: T1, BRD3-NUT; experiment: Immunofluorescence staining of NUT megadomains, 10326; assay type: cell-based, human; conditions: 10326 cells; 30 minutes treatment
T1 construct: endogenous in cells; host or cells: 10326 NUT carcinoma cells, in culture (A11) and as subcutaneous xenograft tumours in NOG mice (A26)
Experimental: Cells were seeded on four-well chamber slides (Merck Millipore, #PEZGS0416). After treatment, cells were fixed with 4% PFA (16% Solution, Thermo Fischer #28908 Paraformaldehyde, diluted 1:4 in PBS), permeabilised with 0,1% TX-100 (Sigma #93443, diluted in PBS). After blocking in blocking buffer (10% normal goat serum, Sigma #G9023–10ml, diluted in blocking solution: 2% BSA/PBS, Sigma #A7284–50ml, diluted 1:15 in PBS), the first antibody mAB rabbit anti-NUT 1:1000 (clone C52B1, Cell Signaling #3625) in blocking buffer was added, followed by incubation with the 2nd antibody goat anti-rabbit Alexa*488 1:1000 (Thermo Fisher, #A-11008) in blocking buffer in the dark. Cells were mounted with ProLong Gold Antifade Mountant with DAPI (Thermo Fisher, #P36931) and analysed using a Laser scanning microscope (LSM700).
[…] Upper row: antibody against NUT, lower row: DAPI.

HEXIM1 [3] = experiment: Pharmacometrics (PK/PD) simulation; conditions: Supplement Fig. 6
Experimental: Pharmacometrics simulation for platelet counts (top) and plasma concentration (bottom) as a function of four different dosing regimens of BI 894999. Solid line of 10nM indicated the estimated plasma concentration needed to stimulate a maximum 2-fold change from baseline for HEXIM1.

10–15 BRD4-NUT = experiment: Cell proliferation assay (Alamar readout), 10–15; assay type: cell-based, human; conditions: Homo sapiens, 96h, read-out: geomean GI50
Experimental: (§2) The NUT Carcinoma cell line Ty-82 was purchased from JCRB Japan No. 1330 and cultivated in RPMI 1640 supplemented with 10% fetal calf serum (FCS). The NC cell lines 10–15, 14169 and 10326 were in-licensed from Christopher French, Brigham & Womens Hospital, Boston, and were cultivated in DMEM supplemented with glutamax and 10% FCS.
(§3) Viability assays were performed on 96-well flat-bottom microtiter plates and incubated with Alamar Blue solution (Invitrogen, Carlsbad, US-CA). The effects of drug combinations were analysed using the Bliss Independence Model.
Dose response curves (96h cell proliferation assay - Alamar readout) on four NC cell lines with BET inhibitor BI 894999. Yellow bar: readout t zero (before adding of compound). Green bar: DMSO control (max proliferation).
Dose response curves (96h cell proliferation assay - Alamar readout) on four NC cell lines with multiple BET inhibitors.

[4] = system: 10–15 xenograft (BRD4-NUT); experiment: 10–15 NC xenograft model; assay type: in vivo, mice; conditions: 2 mg/kg BI 894999
Excerpt: as §1

NC cell lines = experiment: Cell proliferation assays, all four NC lines (summary); assay type: cell-based, human
Experimental: as §2, §3

[5] = GI50, depending on the NC cell line

## CNc1nc(-c2nc3ccc(N4CCN(C)CC4)cc3n2Cc2ccccc2)cn2c(C)nnc12 [BI 894999]
HEXIM1 and HIST2H2BF; Schedule B 2.5 mg
  pharmacodynamic modulation of HEXIM1 and HIST2H2BF: max. two-fold
HEXIM1 and HIST2H2BF; Schedule C 6/3 mg, maximum
  PD modulation of HEXIM1 and HIST2H2BF: up to four-fold
HEXIM1 and HIST2H2BF; Schedule C, 23.5 h after drug application
  PD modulation of HEXIM1 and HIST2H2BF still measurable: two-fold
HEXIM1 [1]
  HEXIM1 modulation in the blood: ~ 2 fold
[2]
  TGI: 99%
BRD3-NUT
  concentration at which BRD3-NUT detaches from chromatin: 3 to 10 nM
HEXIM1 [3]
  estimated plasma concentration needed to stimulate a maximum 2-fold change from baseline for HEXIM1: 10 nM
10–15 BRD4-NUT
  GI50: 1.7 nM
[4]
  TGI: 40%
NC cell lines; [5]
  fold more potent than JQ1 and GSK525762: 40–60 fold
  more potent than the dual BET/p300 inhibitor NEO2734: 10–20
NC cell lines; Homo sapiens, TY82, Ty-82, 10–15, 14169, 10326, read-out: GI50 (geomean), range over all NC lines
  GI50: 0.9 to 2.6 nM
